Laboratory results: patent publication US4868195A, “Novel enolamides, pharmaceutical compositions and methods of use thereof for activity as modulators of the arachidonic acid cascade” (Warner-Lambert Company, priority 1988, dated 1989)
Values joined by “and” are separate entries in the source; they are usually repeats but may differ in a detail not shown here. Equal values may be shown once.

The compounds below were run against T1, leukotriene receptor (guinea pig lung membranes) (Cavia porcellus, UniProt Q2NNR5) (assay: Binding of ^3 H-Leukotriene D4 to Guinea Pig Lung Membranes (RBL)). Settings: 0.2 nM ^3 H-LTD4, 60 min, 25° C.; read-out: Concentration (M) for 50.0 % Inhibition, IC (RBL).
T1 construct: 20 mg original tissue wet weight of guinea pig lung; tissue Kuiper Rabbit Farm, Gary, IN (animals); host or cells: guinea pig lung, crude membranes
T1 sequence (Q2NNR5 1-340): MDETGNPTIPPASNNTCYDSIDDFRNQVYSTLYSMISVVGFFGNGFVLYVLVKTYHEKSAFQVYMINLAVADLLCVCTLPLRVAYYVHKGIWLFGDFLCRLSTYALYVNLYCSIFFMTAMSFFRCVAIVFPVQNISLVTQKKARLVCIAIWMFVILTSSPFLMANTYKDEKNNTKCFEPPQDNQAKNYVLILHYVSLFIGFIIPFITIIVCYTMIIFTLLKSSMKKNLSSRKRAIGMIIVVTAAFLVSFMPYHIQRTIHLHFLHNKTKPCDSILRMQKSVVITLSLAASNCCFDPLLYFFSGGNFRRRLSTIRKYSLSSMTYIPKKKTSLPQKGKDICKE
Description: Additionally, the activity, of the compounds having the Formula I of the present invention is determined by the well known leukotriene receptor binding assay that is described by R. F. Bruns, W. J. Thomsen and T. A. Pugsley in Life Sciences, 33, 645 (1983) or the Herxheimer in vivo antiallergy test described in H. Herxheimer, J. Physiol. (London), Vol. 177, p. 251 (1952).
Binding of ^3 H-Leukotriene D4 to Guinea Pig Lung Membranes (RBL)
[14,15-^3 H]leukotriene D4 (^3 H-LTD4) (25 Ci/mmol and 40 Ci/mmol) is purchased from New England Nuclear. Unlabeled LTC4 is a gift of Ono Pharmaceuticals (Japan). LTC4, LTD4, and LTE4 are purchased as methyl esters from Paesel GmbH (Frankfurt, W. Germany). Concentrations of the Paesel leukotrienes are calculated from their absorbance at 280 nm. Leukotriene esters are saponified overnight under N2 in 3.3% potassium carbonate at room temperature. Tritiated leukotrienes are stored as received from New England Nuclear at -20° C. Ono LTC4 (5 μg/ml) is stored at -60° C. in phosphate buffer pH 6.8. Saponified Paesel leukotrienes are stored at -60° C. in 3.3% potassium carbonate (pH 9.0-9.5). Aliquots of leukotrienes are taken from stock solutions immediately after thawing, after which the stock solutions are immediately refrozen. 2-Amino-2-(hydroxymethyl)-1,3-propanediol (Tris) is Sigma pH 7.7 pre-set crystals, and dimethylsulfoxide is Aldrich Gold Label.
Preparation of crude lung membranes
Two pairs of lungs (1.3 g) from freshly sacrificed 300 g male guinea pigs (older animals gave substantially lower binding) from Kuiper Rabbit Farm, Gary, IN are disrupted with a Polytron PT 10 (setting 4) for 30 seconds in 20 ml ice-cold 50 mM Tris adjusted with HCl to pH 7.7 at 25° C. (Tris buffer), filtered through a single layer of gauze to remove connective tissue, and centrifuged at 50,000 xg for ten min. The pellet is resuspended by homogenization with a Polytron in 20 ml Tris buffer, centrifuged at 50,000 xg for ten min., resuspended, incubated at 37° C. for 30 minutes, and centrifuged again. The final pellet is resuspended in Tris buffer and either used fresh or stored at -70° C.
All incubations are in triplicate for 60 minutes at 25° C. in 12×75 mm polystyrene tubes containing 1 ml Tris buffer with 20 mg original tissue wet weight of guinea pig lung nmembranes, 0.2 nM ^3 H-LTD4 (6,000-11,000 cpm), 10 mM MgCl2, and 1% dimethylsulfoxide Leukotrienes are diluted in Tris buffer. All other test compounds dissolved at 10 mM in dimethylsulfoxide on the same day as the experiment, and diluted in dimethylsulfoxide to 100× the final incubation concentration. Control incubations receive an equal volume (10 μl) of dimethylsulfoxide; the resulting concentration of dimethylsulfoxide had no effect on binding. ^3 H-LTD4 is diluted to 2 nM in Tris buffer. The membrane suspension (20 mg/0.89 ml) contains sufficient MgCl2 to give 10 mM final concentration in the incubation. […] All additions are performed at 0° C. Immediately after the last addition, the incubation is initiated by agitating the rack of tubes on a vortex mixer and warming to 25° C. in a water bath. Tubes are vortexed at least once more during the incubation to ensure that the membranes remained suspended. Incubations are terminated after 60 minutes by filtering under reduced pressure through 25 mm Whatman GF/B filters followed by rapid washing three times with 4 ml of ice-cold Tris buffer. Filters are added to scintillation vials with 8 ml Formula 947 (New England Nuclear), left overnight, shaken, and the radioactivity counted in a scintillation counter (efficiency 40%). Nonspecific binding, defined as binding of ^3 H-LTD4 in the presence of 100 nM LTC4, is 300-500 cpm for all lots of ^3 H-LTD4. Binding to the filters in the absence of tissue is about 100 cpm, and is not affected by unlabeled LTC4. Specific binding, defined as total binding minus nonspecific binding, varied considerably from lot to lot of ^3 H-LTD4. […]
With COc1cc(CCc2ccc(NC(=O)C3=C(O)c4ccccc4S(=O)(=O)C3)cc2)cc(OC)c1OC [Example 35] the IC50 was 4.23e-05 M.
COc1cc(CCc2ccc(NC(=O)C3=C(O)c4ccccc4S(=O)(=O)C3)cc2)cc(OC)c1 [Example 34, N-[4-[2-(3,5-Dimethoxyphenyl)ethyl]phenyl]-4-hydroxy-2H-1-benzothiopyran-3-carboxamide, 1,1-dioxide] was tested, and the IC50 was 1.58e-05 M.
O=C(Nc1ccc(CCc2ccc(O)cc2O)cc1)C1=C(O)c2ccccc2S(=O)(=O)C1 [Example 31, N-[4-[2-(2,4-Dihydroxyphenyl)ethyl]phenyl]-4-hydroxy-2H-1-benzothiopyran-3-carboxamide, 1,1-dioxide] was tested, and the IC50 was 5.2e-05 M.
In the case of COc1ccc(CCc2ccc(NC(=O)C3=C(O)c4ccccc4S(=O)(=O)C3)cc2)c(OC)c1 [Example 30, N-[4-[2-(2,4-Dimethoxyphenyl)ethyl]phenyl]-4-hydroxy-2H-1-benzothiopyran-3-carboxamide, 1,1-dioxide], the IC50 is reported as 2.26e-05 M.
Compound O=C(Nc1ccc(CCc2ccc(Oc3ccccc3)cc2)cc1)C1=C(O)c2ccccc2S(=O)(=O)C1 [Example 75, 2H-1-Benzothiopyran-3-carboxamide, 4-hydroxy-N-[4-[2-(4-phenoxyphenyl)ethyl]phenyl]-, 1,1-dioxide] has an IC50 of 5.58e-06 M.
CC(C)(C)c1cc(CCc2ccc(NC(=O)C3=C(O)c4ccccc4S(=O)(=O)C3)cc2)cc(C(C)(C)C)c1O [Example 77, 2H-1-Benzothiopyran-3-carboxamide, N-[4-[2-[3,5-bis(1,1-dimethylethyl)-4-hydroxyphenyl]ethyl]phenyl]-4-hydroxy-, 1,1-dioxide] showed an IC50 of 5.96e-06 M.
In the case of O=C(Nc1ccc(CCc2ccc(Cl)c(Cl)c2)cc1)C(=O)C1=C(O)c2ccccc2S(=O)(=O)C1 [Example 69, 2H-1-Benzothiopyran-3-acetamide, N-[4-[2-(3,4-dichlorophenyl)ethyl]phenyl]-4-hydroxy-α-oxo-, 1,1-dioxide], the IC50 is reported as 2.04e-05 M.
In the case of O=C(Nc1ccc(CCc2cccc(Cl)c2)cc1)C1=C(O)c2ccccc2S(=O)(=O)C1 [Example 68, 2H-1-Benzothiopyran-3-carboxamide, N-[4-[2-(3-chlorophenyl)ethyl]phenyl]-4-hydroxy-, 1,1-dioxide], the IC50 is reported as 4.99e-06 M.
With O=C(Nc1ccc(CCc2cc(C(F)(F)F)cc(C(F)(F)F)c2)cc1)C1=C(O)c2ccccc2S(=O)(=O)C1 [Example 63, N-[4-[2-[3,5-bis-Trifluoromethyl(phenyl)]ethyl]phenyl]-4-hydroxy-2H-1-benzothiopyran-3-carboxamide, 1,1-dioxide] the IC50 was 4.42e-06 M and 3.11e-06 M.
With Nc1ccc(C=Cc2ccc(NC(=O)C3CS(=O)(=O)c4ccccc4C3=O)cc2)cc1 (centres unmarked) [Example 66, 2H-1-Benzothiopyran-3-carboxamide, N-[4-[2-(4-aminophenyl)ethenyl]phenyl]-3,4-dihydro-4-oxo-, 1,1-dioxide] the IC50 was 3.15e-05 M.
For COc1cccc(CCc2ccc(NC(=O)C3=C(O)c4ccccc4S(=O)(=O)C3)cc2)c1OC [Example 28, N-[4-[2-(2,3-Dimethoxyphenyl)ethyl]phenyl]-4-hydroxy-2H-1-benzothiopyran-3-carboxamide, 1,1-dioxide], the IC50 was 5e-05 M and 3.56e-05 M.
O=C(Nc1ccc(CCc2cccc(O)c2O)cc1)C1CS(=O)(=O)c2ccccc2C1=O (centres unmarked) [Example 29, N-[4-[2-(2,3-Dihydroxyphenyl)ethyl]phenyl]-3,4-dihydro-4-oxo-2H-1-benzothiopyran-3-carboxamide, 1,1-dioxide] showed an IC50 of 3.92e-05 M.
O=C(Nc1ccc(CCc2cccc(C(F)(F)F)c2)cc1)C1=C(O)c2ccccc2S(=O)(=O)C1 [Example 62, N-[4-[2-(3-Trifluoromethylphenyl)ethyl]phenyl]-4-hydroxy-2H-1-benzothiopyran-3-carboxamide, 1,1-dioxide] was tested, and the IC50 was 1e-05 M and 5.95e-06 M and 4.98e-06 M.
For O=C(Nc1ccc(CCc2cc(C(F)(F)F)cc(C(F)(F)F)c2)cc1)c1sc2ccccc2c1O [Example 148, Benzo[b]thiophene-2-carboxamide, N-[4-[2-[3,5-bis(trifluoromethyl)phenyl]ethyl]phenyl]-3-hydroxy], the IC50 was 0.0001 M.
Compound COc1ccc(CCc2ccc(NC(=O)C(=O)c3sc4ccccc4c3O)cc2)cc1OC [Example 131, N-[4-[2-(3,4-Dimethoxyphenyl)ethyl]phenyl]-3-hydroxy-α-oxo-benzo[b]thiophene-2-acetamide] has an IC50 of 4.4e-06 M.
COc1ccc(OC)c(CCc2ccc(NC(=O)C3=C(O)c4ccccc4S(=O)(=O)C3)cc2)c1 [Example 32, N-[4-[2-(2,5-Dimethoxyphenyl)ethyl]phenyl]-4-hydroxy-2H-1-benzothiopyran-3-carboxamide, 1,1-dioxide] showed an IC50 of 2.35e-05 M.
With O=C(Nc1ccc(CCc2ccc(Cl)c(Cl)c2)cc1)c1sc2ccccc2c1O [Example 144] the IC50 was 5e-06 M and 6.43e-06 M and 3.28e-06 M.
